What was measured:
human orexin 2 receptors = human orexin 2 receptors (Homo sapiens (Human), UniProt O43614); experiment: Calcium Accumulation in Cells (FLIPR), antagonism of orexin A; assay type: cell-based; conditions: for inhibition at 10 µM: measured at a concentration of 10 μM of compound, read-out: FLIPR hOx2R % inhibition value; for Ki: antagonism of orexin A, Cheng-Prusoff corrected, read-out: FLIPR hOx2R Ki
Method in brief: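 Cells expressing human orexin 2 receptor, loaded with Fluo4-AM (2 μM) plus probenecid (0.1 mM) for 1 h, then washed. Antagonism read as inhibition of the orexin A calcium fluorescence signal (FLIPR).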

human orexin 1 receptors = human orexin 1 receptors (Homo sapiens (Human), UniProt O43613); experiment: as above; assay type: cell-based; conditions: for inhibition at 10 µM: measured at a concentration of 10 μM of compound, read-out: FLIPR hOx1R % inhibition value; for Ki: antagonism of orexin A, Cheng-Prusoff corrected, read-out: FLIPR hOx1R Ki
Chain of human orexin 1 receptors (O43613 whole entry): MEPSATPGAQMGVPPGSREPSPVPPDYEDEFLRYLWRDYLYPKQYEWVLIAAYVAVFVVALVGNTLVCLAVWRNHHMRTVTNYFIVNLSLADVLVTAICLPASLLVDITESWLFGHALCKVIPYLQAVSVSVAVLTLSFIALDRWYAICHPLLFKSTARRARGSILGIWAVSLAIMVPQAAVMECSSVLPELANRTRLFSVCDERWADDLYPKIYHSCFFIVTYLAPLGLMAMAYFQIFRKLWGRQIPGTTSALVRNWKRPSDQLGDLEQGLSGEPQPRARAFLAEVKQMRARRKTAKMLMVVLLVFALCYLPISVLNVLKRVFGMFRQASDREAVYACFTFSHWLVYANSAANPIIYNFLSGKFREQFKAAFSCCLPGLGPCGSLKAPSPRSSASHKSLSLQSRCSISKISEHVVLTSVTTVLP

Chain of human orexin 2 receptors (O43614 whole entry): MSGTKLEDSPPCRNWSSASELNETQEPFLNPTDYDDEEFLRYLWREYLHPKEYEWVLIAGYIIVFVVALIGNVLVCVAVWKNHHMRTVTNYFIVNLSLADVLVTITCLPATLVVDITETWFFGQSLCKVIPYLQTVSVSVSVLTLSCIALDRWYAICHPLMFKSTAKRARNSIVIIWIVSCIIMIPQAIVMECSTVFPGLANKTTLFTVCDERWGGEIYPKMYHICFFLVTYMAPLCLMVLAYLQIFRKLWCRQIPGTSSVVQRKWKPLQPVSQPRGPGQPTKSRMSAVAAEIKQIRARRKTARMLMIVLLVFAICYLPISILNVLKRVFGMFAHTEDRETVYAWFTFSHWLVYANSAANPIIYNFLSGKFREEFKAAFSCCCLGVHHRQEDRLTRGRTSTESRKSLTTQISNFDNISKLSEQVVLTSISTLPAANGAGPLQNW

Compound	inhibition at 10 µM (human orexin 2 receptors) [%]	inhibition at 10 µM (human orexin 1 receptors) [%]	Ki (human orexin 1 receptors) [nM]	Ki (human orexin 2 receptors) [nM]
COc1ccc(CNC(=O)COc2cc(C)c3c(C4CC4)nn(C)c3n2)cc1 [Example 6.67, 2-(3-cyclopropyl-1,4-dimethyl-1H-pyrazolo[3,4-b]pyridin-6-yloxy)-N-(4-methoxybenzyl)acetamide]	40	29	–	–
Cc1cc(OCC(=O)N[C@H]2CCc3cc(OC(C)C)ccc32)nc2c1c(C1CC1)nn2C [Example 6.69, (S)-2-(3-cyclopropyl-1,4-dimethyl-1H-pyrazolo[3,4-b]pyridin-6-yloxy)-N-(5-isopropoxy-2,3-dihydro-1H-inden-1-yl)acetamide]	31	–	126	–
COc1ccc([C@H](C)NC(=O)C(C)Oc2cc(C)c3c(C4CC4)nn(C)c3n2)cc1 (stereo partly drawn) [Example 6.70, 2-(3-cyclopropyl-1,4-dimethyl-1H-pyrazolo[3,4-b]pyridin-6-yloxy)-N-((S)-1-(4-methoxyphenyl)ethyl)propanamide]	–	–	1060	1070
COc1ccc([C@H](C)NC(=O)COc2nc3c(c(C4CC4)nn3C)c(C)c2C)cc1 [Example 6.74, (S)-2-(3-cyclopropyl-1,4,5-trimethyl-1H-pyrazolo[3,4-b]pyridin-6-yloxy)-N-(1-(4-methoxyphenyl)ethyl)acetamide]	38	23	–	–
Cc1ccc([C@H](C)NC(=O)COc2nc3c(c(C4CC4)nn3C)c(C)c2C)cc1 [Example 6.75, (S)-2-(3-cyclopropyl-1,4,5-trimethyl-1H-pyrazolo[3,4-b]pyridin-6-yloxy)-N-(1-p-tolylethyl)acetamide]	–	–	1750	567
COc1ccc([C@H](C)NC(=O)COc2nc3c(cc2C)c(C2CC2)nn3C)cc1 [Example 6.76, (S)-2-(3-cyclopropyl-1,5-dimethyl-1H-pyrazolo[3,4-b]pyridin-6-yloxy)-N-(1-(4-methoxyphenyl)ethyl)acetamide]	34	23	–	–
C[C@H](NC(=O)COc1cc(C(F)(F)F)c2c(-c3ccccc3)noc2n1)c1ccccc1 [Example 6.78, (S)-2-(3-phenyl-4-(trifluoromethyl)isoxazolo[5,4-b]pyridin-6-yloxy)-N-(1-phenylethyl)acetamide]	–	43	–	1830
Cc1cnc(CNC(=O)COc2cc(C)c3c(C4CC4)nn(C)c3n2)cn1 [Example 7.2, 2-(3-cyclopropyl-1,4-dimethyl-1H-pyrazolo[3,4-b]pyridin-6-yloxy)-N-((5-methylpyrazin-2-yl)methyl)acetamide]	15	< 10	–	–
Cc1cc(OCC(=O)NCCCn2ccnc2)nc2c1c(C1CC1)nn2C [Example 7.3, N-(3-(1H-imidazol-1-yl)propyl)-2-(3-cyclopropyl-1,4-dimethyl-1H-pyrazolo[3,4-b]pyridin-6-yloxy)acetamide]	16	< 10	–	–
Cc1cc(OCC(=O)NCc2ccc3c(c2)CCO3)nc2c1c(C1CC1)nn2C [Example 7.4, 2-(3-cyclopropyl-1H-dimethyl-1H-pyrazolo[3,4-b]pyridin-6-yloxy)-N-((2,3-dihydrobenzofuran-5-yl)methyl)acetamide]	26	< 10	–	–
Cc1cc(OCC(=O)NCCc2c[nH]c3ccccc23)nc2c1c(C1CC1)nn2C [Example 7.5, N-(2-(1H-indol-3-yl)ethyl)-2-(3-cyclopropyl-1H-dimethyl-1H-pyrazolo[3,4-b]pyridin-6-yloxy)acetamide]	–	< 10	–	479
Cc1cc(OCC(=O)NCC2CCCCC2)nc2c1c(C1CC1)nn2C [Example 7.6, N-(cyclohexylmethyl)-2-(3-cyclopropyl-1,4-dimethyl-1H-pyrazolo[3,4-b]pyridin-6-yloxy)acetamide]	< 10	18	–	–
Cc1cccc(C(C)NC(=O)COc2cc(C)c3c(C4CC4)nn(C)c3n2)n1 (centres unmarked) [Example 7.7, 2-(3-cyclopropyl-1,4-dimethyl-1H-pyrazolo[3,4-b]pyridin-6-yloxy)-N-(1-(6-methylpyridin-2-yl)ethyl)acetamide]	21	32	–	–
Cc1cc(OCC(=O)NC2CCCc3ncccc32)nc2c1c(C1CC1)nn2C (centres unmarked) [Example 7.8, 2-(3-cyclopropyl-1H-dimethyl-1H-pyrazolo[3,4-b]pyridin-6-yloxy)-N-(5,6,7,8-tetrahydroquinolin-5-yl)acetamide]	20	26	–	–
COc1ccc2c(c1)C(NC(=O)COc1cc(C)c3c(C4CC4)nn(C)c3n1)CC2 (centres unmarked) [Example 7.9, 2-(3-cyclopropyl-1,4-dimethyl-1H-pyrazolo[3,4-b]pyridin-6-yloxy)-N-(6-methoxy-2,3-dihydro-1H-inden-1-yl)acetamide]	–	–	877	742
Cc1cc(OCC(=O)NCc2cccc3cnn(C)c23)nc2c1c(C1CC1)nn2C [Example 7.10, 2-(3-cyclopropyl-1,4-dimethyl-1H-pyrazolo[3,4-b]pyridin-6-yloxy)-N-((1-methyl-1H-indazol-7-yl)methyl)acetamide]	40	34	–	–

Compound	inhibition at 10 µM (human orexin 2 receptors) [%]	inhibition at 10 µM (human orexin 1 receptors) [%]	Ki (human orexin 1 receptors) [nM]	Ki (human orexin 2 receptors) [nM]
COc1cccc([C@H](C)NC(=O)COc2cc(C)c3c(C4CC4)nn(C)c3n2)c1 [Example 7.12, (S)-2-(3-cyclopropyl-1,4-dimethyl-1H-pyrazolo[3,4-b]pyridin-6-yloxy)-N-(1-(3-methoxyphenyl)ethyl)acetamide]	43	–	736	–
COc1ccccc1[C@H](C)NC(=O)COc1cc(C)c2c(C3CC3)nn(C)c2n1 [Example 7.13, (S)-2-(3-cyclopropyl-1,4-dimethyl-1H-pyrazolo[3,4-b]pyridin-6-yloxy)-N-(1-(2-methoxyphenyl)ethyl)acetamide]	–	–	1540	450
Cc1cc(OCC(=O)NCc2ccc(Cl)nc2)nc2c1c(C1CC1)nn2C [Example 7.14, N-((6-chloropyridin-3-yl)methyl)-2-(3-cyclopropyl-1,4-dimethyl-1H-pyrazolo[3,4-b]pyridin-6-yloxy)acetamide]	20	31	–	–
Cc1cc(OCC(=O)NCc2cccc3[nH]ncc23)nc2c1c(C1CC1)nn2C [Example 7.15, N-((1H-indazol-4-yl)methyl)-2-(3-cyclopropyl-1,4-dimethyl-1H-pyrazolo[3,4-b]pyridin-6-yloxy)acetamide]	18	26	–	–
COc1ccc(CNC(=O)COc2cc(C)c3c(C4CC4)nn(C)c3n2)cc1Cl [Example 7.16, N-(3-chloro-4-methoxybenzyl)-2-(3-cyclopropyl-1,4-dimethyl-1H-pyrazolo[3,4-b]pyridin-6-yloxy)acetamide]	–	–	3630	1030
Cc1cc(OCC(=O)NC(C)c2ccc3[nH]ccc3c2)nc2c1c(C1CC1)nn2C (centres unmarked) [Example 7.17, N-(1-(1H-indol-5-yl)ethyl)-2-(3-cyclopropyl-1,4-dimethyl-1H-pyrazolo[3,4-b]pyridin-6-yloxy)acetamide]	–	–	414	94
Cc1cccnc1CNC(=O)COc1cc(C)c2c(C3CC3)nn(C)c2n1 [Example 7.18, 2-(3-cyclopropyl-1,4-dimethyl-1H-pyrazolo[3,4-b]pyridin-6-yloxy)-N-((3-methylpyridin-2-yl)methyl)acetamide]	11	< 10	–	–
COc1ccc(C(C)NC(=O)COc2cc(C)c3c(C4CC4)nn(C)c3n2)cc1F (centres unmarked) [Example 7.19, 2-(3-cyclopropyl-1,4-dimethyl-1H-pyrazolo[3,4-b]pyridin-6-yloxy)-N-(1-(3-fluoro-4-methoxy-phenyl)ethyl)acetamide]	–	–	2620	674
Cc1cc(OCC(=O)NC(C)c2cnn(C)c2)nc2c1c(C1CC1)nn2C (centres unmarked) [Example 7.20, 2-(3-cyclopropyl-1,4-dimethyl-1H-pyrazolo[3,4-b]pyridin-6-yloxy)-N-(1-(1-methyl-1H-pyrazol-4-yl)ethyl)acetamide]	31	34	–	–
Cc1ccnc(C(C)NC(=O)COc2cc(C)c3c(C4CC4)nn(C)c3n2)c1 (centres unmarked) [Example 7.21, 2-(3-cyclopropyl-1,4-dimethyl-1H-pyrazolo[3,4-b]pyridin-6-yloxy)-N-(1-(4-methylpyridin-2-yl)ethyl)acetamide]	22	< 10	–	–
Cc1csc(C(C)NC(=O)COc2cc(C)c3c(C4CC4)nn(C)c3n2)n1 (centres unmarked) [Example 7.22, 2-(3-cyclopropyl-1,4-dimethyl-1H-pyrazolo[3,4-b]pyridin-6-yloxy)-N-(1-(4-methylthiazol-2-yl)ethyl)acetamide]	32	40	–	–
Cc1cc(OCC(=O)NC(C)c2nc3ccccc3s2)nc2c1c(C1CC1)nn2C (centres unmarked) [Example 7.23, N-(1-(benzo[d]thiazol-2-yl)ethyl)-2-(3-cyclopropyl-1,4-dimethyl-1H-pyrazolo[3,4-b]pyridin-6-yloxy)acetamide]	–	–	564	150
Cc1cc(OCC(=O)NC2CCCc3c2cnn3C)nc2c1c(C1CC1)nn2C (centres unmarked) [Example 7.24, 2-(3-cyclopropyl-1,4-dimethyl-1H-pyrazolo[3,4-b]pyridin-6-yloxy)-N-(1-methyl-4,5,6,7-tetrahydro-1H-indazol-4-yl)acetamide]	25	28	–	–
Cc1cc(OCC(=O)NC(C)c2cn3ccsc3n2)nc2c1c(C1CC1)nn2C (centres unmarked) [Example 7.25, 2-(3-cyclopropyl-1,4-dimethyl-1H-pyrazolo[3,4-b]pyridin-6-yloxy)-N-(1-(imidazo[2,1-b]thiazol-6-yl)ethyl)acetamide]	–	–	1560	584
Cc1cc(OCC(=O)N[C@@H](C)CCc2ccccc2)nc2c1c(C1CC1)nn2C [Example 7.26, (S)-2-(3-cyclopropyl-1,4-dimethyl-1H-pyrazolo[3,4-b]pyridin-6-yloxy)-N-(4-phenylbutan-2-yl)acetamide]	–	–	1640	184

Reference: patent publication US8742106B2 (Novartis AG, priority 2009, dated 2014)
